Data as given in US20240424004A1, “COMBINATION OF TLR LIGANDS, COMPOUNDS LABELLING TUMORS FOR IMMUNE ATTACK, ANTI-CD40 ANTIBODIES AND INHIBITORS OF GLUTAMINE METABOLISM FOR TREATING CANCER” (priority 2021, published 2024).

Key:
[1] = test system: Panc02 cells; test: Example 4: bilateral Panc02 model, i.t. MBTA + i.p. DON in two timing regimes; assay type: in vivo; conditions: for prolongation of mice survival: FIG. 4C
Description: (§1) Subcutaneous transplantation: Mice were subcutaneously injected with 4×10^5 Panc02 cells in 0.1 ml DMEM or 4×10^5 B16-F10 cells in 0.1 ml RPMI 1640 medium without additives into pre-shaved groin (right or both right and left).
(§2) MBTA immunotherapy: 50 μl of the therapeutic mixture consisting of 0.5 mg R-848, HCl form+0.5 mg poly (I:C), 0.5 mg LTA and 0.4 mg anti-CD40/ml of 0.2 mM mannan-BAM in PBS was administered intratumorally on days 0, 1, 2, 8, 9, 10, 16, 17, 18, 24, 25, and 26. The combination of R-848, poly (I:C), LTA, mannan-BAM and anti-CD40 antibody is hereinafter referred to as ‘MBTA’. In the case of the bilateral Panc02 tumor model, MBTA therapy was always injected only into the right subcutaneous tumor.
(§3) Evaluation of treatment: Tumor sizes were measured every other day using a digital calliper. The formula V=(π/6)AB^2, A being the largest tumor size, B being the smallest tumor size, was used to calculate tumor volume.
The areas under the curves (AUC) were calculated to evaluate tumor growth. The obtained values were statistically evaluated by one-way ANOVA with unequal post hoc test. Kaplan-Meier survival curves were evaluated using the long-rank test. STATISTICA 12 software (StatSoft, Inc., Tulsa, OK, USA) was used for all statistical evaluations. Error bars represent standard error of the mean (SEM).
To improve MBTA/DON combined therapy outcomes we tested the intraperitoneal administration of DON in combination with i.t. MBTA therapy. The total amount of DON (2 mg/mouse/therapy) was applied in two different regimes as further specified.
C57BL/6 mice were s.c. inoculated with Panc02 cells in both right and left flank. After 12 days, mice were randomized into four groups (n=6/group): Group treated with PBS applied in the right tumor; group treated with MBTA applied in the right tumor; group treated with MBTA applied in the right tumor, and DON applied i.p. (13 doses); group treated with MBTA applied in the right tumor, and DON applied i.p. (5 doses, red). MBTA (PBS in the control group) was applied in pulse regime on days 0, 1, 2, 8, 9, 10, 16, 17, 18, 24, 25, and 26. DON was administered i.p. on days 5, 13, 21, 29, 37 (400 μg) and 1, 3, 5, 7, 9, 11, 13 15 17 19 21, 23, 25 (154 μg), respectively.
FIG. 4A, B: Growth of right/left tumors. Statistical analysis was performed by calculating AUC (area under the curve) values using a one-way ANOVA test with Tukey's post hoc test (* p<0.05, **** p<0.001, ***** p<0.0005), FIG. 4 C: Survival analysis.

[2] = test system: Panc02 cells; test: Example 5: bilateral Panc02 model, i.t. MBTA + s.c. DON in different dosages; assay type: in vivo, C57BL/6 mice; conditions: with i.t. MBTA, DON s.c. 80 μg or 400 μg, days 1,9,17,25,33
Description: as §1, §2, §3
(§4) The areas under the curves (AUC) were calculated to evaluate tumor growth. The obtained values were statistically evaluated by one-way ANOVA with unequal post hoc test. Kaplan-Meier survival curves were evaluated using the long-rank test. STATISTICA 12 software (StatSoft, Inc., Tulsa, OK, USA) was used for all statistical evaluations. Error bars represent standard error of the mean (SEM). […]

[3] = test system: Panc02 cells; test: Example 6: bilateral Panc02 model, i.t. MBTA + DON i.t. (left tumor) versus i.p.; assay type: in vivo, C57BL/6 mice; conditions: with MBTA in right tumor, days 1,8,15,22,29
Description: as §1, §2, §3, §4

[4] = test system: Panc02 cells; test: Example 7: bilateral Panc02 model, i.t. MBTA + i.p. DON, efficacy and side effects; assay type: in vivo; conditions: DON 400 μg i.p., days 1,8,15,22,29, with i.t. MBTA
Description: as §1, §2, §3, §4

[N-]=[N+]=CC(=O)CC[C@H](N)C(=O)O [DON, 6-diazo-5-oxo-norleucine]
early deaths of treated mice ([1]; DON i.p. with a sufficient interval between each application, with i.t. MBTA (summary of Examples 4 to 6)): did not observe any early deaths | prolongation of mice survival ([1]; with i.t. MBTA, DON i.p. 154 μg, 13 doses, every other day): evident but not statistically significant | prolongation of mice survival ([1]; with i.t. MBTA, DON i.p. 400 μg, 5 doses): evident but not statistically significant | tolerability of regime / early death ([1]; with i.t. MBTA, DON i.p. every other day (154 μg, 13 doses), n=6/group): too aggressive and resulted in early death of three mice | reduction of tumor growth, compared to i.p. administration of DON (Example 4) ([2]; FIG. 5A, B): less evident | early deaths of treated mice ([2]; FIG. 5C): No early deaths | survival of treated mice ([3]; DON 400 μg i.p., FIG. 6C): significantly prolonged | efficacy of the therapy ([3]; DON 400 μg i.t. in left tumor, FIG. 6): did not improve the efficacy | water and food consumption ([4]; FIG. 7D, E): without any influence | weight of treated mice ([4]; FIG. 7F): without any influence
